What was measured:
Type in all cases: physicochemical
[1] = Competitive suspension equilibration study; settings: room temperature and 60° C.
Method: A competitive suspension equilibration study was carried out to identify the relative stability of the two crystalline forms of the compound of formula (I) in aqueous and organic solvent systems. Competitive suspension equilibration experiments were conducted in ethyl acetate, 50% methanol/water (v/v) and 50% acetonitrile/water (v/v) at room temperature and 60° C. […] Further crystalline forms of the compound of formula (I) (e.g., the first and second crystalline forms of the compound of formula (I)) were added for conversion material and to act as seeds. Each suspension was allowed to stir for 7 or 14 days, and were analyzed via XRPD to determine which form the solids had converted to.

[2] = Evaporative salt and co-crystal screen (1H NMR, HPLC); settings: combined with sodium hydroxide and potassium hydroxide
[3] = Dynamic vapor sorption (DVS), with XRPD on the post-DVS sample; settings: for DVS weight increase during exposure to 80% RH: 25° C., humidity ramped 0 to 95% RH, value at 80% RH; for structural change by XRPD after DVS (exposure to high humidity): XRPD on post-DVS sample; for hygroscopicity classification from DVS: based on weight increase up to 80% RH
Method: Dynamic vapor sorption (DVS) was carried out using the TA Instruments Q5000 SA. A predefined amount of the sample, 2.0 to 10.0 mg, was placed in a platinum pan. The sample was allowed to equilibrate at 50° C. at 0% RH for a period of 60 minutes. The sample was then equilibrated at 25° C. before ramping the humidity from 0 to 95% RH at 5% increments every hour. A similar ramp profile was used for desorption cycle. XRPD analysis was also performed on post DVS sample.

[4] = Thermal gravimetric analysis (TGA) and DSC: thermal degradation; settings: heated at 10° C./minute under nitrogen
Method: (§1) DSC data was collected on a TA Instruments Q2000 DSC. A predefined amount of the sample, 2.0 to 10.0 mg, was placed in an aluminum pan and heated at 5° C./minute from 25° C. to 220° C. A purge of dry nitrogen at 100 mL/minute was maintained over the sample. The instrument control and data acquisition are acquired using Q Advantage software release version 5.5.23. The data was processed and presented using the TA Universal Analysis 2000 software version 4.5A build 4.5.0.5.
as §1, with “TGA” for “DSC”, “Q5000 TGA.” for “Q2000 DSC.”, “10°” for “5°”, “40°” for “25°”, “300° C., or varied as experimentation dictated.” for “220° C.”, “25” for “100”

[5] = Single solvent slurry screen
Method: Magnetic stirrers were added to vials, and the suspensions were allowed to stir at room temperature for 4 days. Solid samples generated were analyzed via XRPD to assess crystallinity and crystal structure.

[6] = Temperature cycled single solvent slurry screen
Method: Magnetic stirrers were added to vials, and the suspensions were cycled between 50° C. and 5° C. for three cycles with agitation. Solid samples generated were analyzed via XRPD to assess crystallinity and crystal structure. […] Solid samples were obtained from slurries in all other solvents screened.

[7] = Binary solvent slurry screen; settings: room temperature
Method: Solvent combinations were selected based on solvent properties, functionality, and miscibility. […] Magnetic stirrers were added to vials, and the suspensions were allowed to stir at room temperature for 5 days.

Q: With COC[C@H](NC(=O)c1ccn(S(C)(=O)=O)c1)C(=O)Nc1nc(-c2cccc(N3C[C@@H](C)O[C@@H](C)C3)n2)cs1 [compound of formula (I)] as the compound, how does the “form conversion of mixed first and second crystalline forms (XRPD)” value ([1]; aqueous solvents (methanol/water 14 days, acetonitrile/water 7 days)) read?
A: did not result in the conversion of either crystalline form to the other

Q: What about the “form conversion of mixed first and second crystalline forms (XRPD)” value ([1]; ethyl acetate, methanol, acetonitrile, within seven days) of the same compound?
A: fully converted to the second crystalline form

Q: What about the “chemical stability in a basic environment (1H NMR, HPLC)” value [2] of the same compound?
A: molecular degradation was visible

Q: For COC[C@H](NC(=O)c1ccn(S(C)(=O)=O)c1)C(=O)Nc1nc(-c2cccc(N3C[C@@H](C)O[C@@H](C)C3)n2)cs1 [first crystalline form of the compound of formula (I)], which “DVS weight increase during exposure to 80% RH” value [3] is on record?
A: 1.4 % (w/w)

Q: And the “structural change by XRPD after DVS (exposure to high humidity)” value [3]?
A: no structural changes occurred

Q: What about the “hygroscopicity classification from DVS” value [3] of the same compound?
A: slightly hygroscopic

Q: What about the “molecular degradation onset (TGA/DSC)” value [4] of the same compound?
A: 254.3 °C

Q: And the “molecular degradation temperature (TGA/DSC), degradation from” value [4]?
A: 220 °C

Q: Which “DVS weight increase during exposure to 80% RH” value [3] does the source give for COC[C@H](NC(=O)c1ccn(S(C)(=O)=O)c1)C(=O)Nc1nc(-c2cccc(N3C[C@@H](C)O[C@@H](C)C3)n2)cs1 [second crystalline form of the compound of formula (I)] here?
A: 0.04 % (w/w)

Q: And the “structural change by XRPD after DVS (exposure to high humidity)” value [3]?
A: no structural changes occurred

Q: And the “hygroscopicity classification from DVS” value [3]?
A: non-hygroscopic

Q: What about the “molecular degradation temperature (TGA/DSC), degradation from” value [4] of the same compound?
A: 240 °C

Q: What about the “solubility in THF” value ([5]; room temperature slurry) of the same compound?
A: extremely high

Q: And the “crystal structure after slurry (XRPD), form stability” value (from here on “crystal structure after slurry (XRPD)”) ([5]; single solvents except THF, stirred at room temperature for 4 days)?
A: the same crystal structure

Q: What about the “crystal structure after slurry (XRPD)” value ([6]; single solvents except THF, cycled between 50° C. and 5° C. for three cycles) of the same compound?
A: the same crystal structure

Q: And the “solubility in THF” value ([6]; temperature cycled slurry)?
A: extremely high

Q: And the “crystal structure after slurry (XRPD)” value ([7]; 50/50 (v/v) solvent mixtures except methanol/THF, 5 days)?
A: the same crystal structure

Q: What about the “solubility in methanol/THF” value ([7]; 50/50 (v/v)) of the same compound?
A: high

— patent publication US12606553B2, “Crystalline forms, compositions containing same, and methods of their use” (FOGHORN THERAPEUTICS INC., priority 2021, dated 2026)
